# Results as given in PubChem BioAssay (NCI).
#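 Method: 48-hour compound exposure of cells in 96-well plates, five concentrations, linear interpolation of endpoints. GI50 is the concentration that inhibits growth by half. TGI marks complete inhibition of growth.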
# Experiments:
# Experiment in all cases: NCI anticancer screen, dose series, 48 h
# SW-620 colon = tested on: SW-620 colon
# CCRF-CEM leukemia = tested on: CCRF-CEM leukemia
# NCI-H522 lung = tested on: NCI-H522 lung
# TK-10 renal = tested on: TK-10 renal
# SK-MEL-28 melanoma = tested on: SK-MEL-28 melanoma
# SNB-75 CNS = tested on: SNB-75 CNS
# KM12 colon = tested on: KM12 colon
# MDA-MB-231 breast = tested on: MDA-MB-231 breast
# PC-3 prostate = tested on: PC-3 prostate
# NCI-H23 lung = tested on: NCI-H23 lung
# RPMI-8226 leukemia = tested on: RPMI-8226 leukemia
# MOLT-4 leukemia = tested on: MOLT-4 leukemia
# UACC-257 melanoma = tested on: UACC-257 melanoma
# OVCAR-8 ovarian = tested on: OVCAR-8 ovarian
# DU-145 prostate = tested on: DU-145 prostate
# SR leukemia = tested on: SR leukemia
# HCT-116 colon = tested on: HCT-116 colon
# M14 melanoma = tested on: M14 melanoma
# SK-MEL-2 melanoma = tested on: SK-MEL-2 melanoma
# SN12C renal = tested on: SN12C renal
# NCI-H460 lung = tested on: NCI-H460 lung
# SF-295 CNS = tested on: SF-295 CNS
# MDA-MB-435 = tested on: MDA-MB-435
# SK-OV-3 ovarian = tested on: SK-OV-3 ovarian
# HOP-62 NSCLC = tested on: HOP-62 NSCLC
# NCI/ADR-RES ovarian = tested on: NCI/ADR-RES ovarian
# A549 NSCLC = tested on: A549 NSCLC
# NCI-H226 lung = tested on: NCI-H226 lung
# COLO 205 colon = tested on: COLO 205 colon
# LOX IMVI melanoma = tested on: LOX IMVI melanoma
# UACC-62 melanoma = tested on: UACC-62 melanoma
# ACHN renal = tested on: ACHN renal
# MCF7 breast = tested on: MCF7 breast
# RXF 393 renal = tested on: RXF 393 renal
# OVCAR-5 ovarian = tested on: OVCAR-5 ovarian
# OVCAR-4 ovarian = tested on: OVCAR-4 ovarian
# OVCAR-3 ovarian = tested on: OVCAR-3 ovarian
# HCC-2998 colon = tested on: HCC-2998 colon
# U251 CNS = tested on: U251 CNS
# SF-539 CNS = tested on: SF-539 CNS
# HT29 colon = tested on: HT29 colon
# SK-MEL-5 melanoma = tested on: SK-MEL-5 melanoma
# K-562 leukemia = tested on: K-562 leukemia
# HS 578T breast = tested on: HS 578T breast
# MALME-3M melanoma = tested on: MALME-3M melanoma
# HCT-15 colon = tested on: HCT-15 colon
# UO-31 renal = tested on: UO-31 renal
# A498 renal = tested on: A498 renal
# BT-549 breast = tested on: BT-549 breast
# SF-268 CNS = tested on: SF-268 CNS
# IGROV1 ovarian = tested on: IGROV1 ovarian
# SNB-19 CNS = tested on: SNB-19 CNS
# HL-60(TB) leukemia = tested on: HL-60(TB) leukemia
# T-47D breast = tested on: T-47D breast
# HOP-92 NSCLC = tested on: HOP-92 NSCLC
# 786-0 renal = tested on: 786-0 renal
# CAKI-1 renal = tested on: CAKI-1 renal
# EKVX NSCLC = tested on: EKVX NSCLC
structure (smiles),measurement,setting,value
CCSC1=CC(=O)c2ccccc2C1=O,GI50,SW-620 colon,1.56 µM
same,TGI,SW-620 colon,3.42 µM
same,GI50,CCRF-CEM leukemia,0.374 µM
same,GI50,NCI-H522 lung,0.821 µM
same,TGI,NCI-H522 lung,2.39 µM
same,GI50,TK-10 renal,2.5 µM
same,TGI,TK-10 renal,4.65 µM
same,GI50,SK-MEL-28 melanoma,14.4 µM
same,TGI,SK-MEL-28 melanoma,28.9 µM
same,GI50,SNB-75 CNS,14.8 µM
same,TGI,SNB-75 CNS,29.7 µM
same,GI50,KM12 colon,11 µM
same,TGI,KM12 colon,25.4 µM
same,GI50,MDA-MB-231 breast,0.759 µM
same,TGI,MDA-MB-231 breast,3.3 µM
same,GI50,PC-3 prostate,5.84 µM
same,TGI,PC-3 prostate,18.5 µM
same,GI50,NCI-H23 lung,9.05 µM
same,TGI,NCI-H23 lung,26.6 µM
same,GI50,RPMI-8226 leukemia,1.49 µM
same,TGI,RPMI-8226 leukemia,5.65 µM
same,GI50,MOLT-4 leukemia,0.744 µM
same,TGI,MOLT-4 leukemia,2.39 µM
same,GI50,UACC-257 melanoma,1.6 µM
same,TGI,UACC-257 melanoma,3.89 µM
same,GI50,OVCAR-8 ovarian,1.75 µM
same,TGI,OVCAR-8 ovarian,3.8 µM
same,GI50,DU-145 prostate,14.4 µM
same,TGI,DU-145 prostate,27.8 µM
same,GI50,SR leukemia,2.57 µM
same,TGI,SR leukemia,6.8 µM
same,GI50,HCT-116 colon,1.48 µM
same,TGI,HCT-116 colon,2.84 µM
same,GI50,M14 melanoma,12.8 µM
same,TGI,M14 melanoma,26 µM
same,GI50,SK-MEL-2 melanoma,6.48 µM
same,TGI,SK-MEL-2 melanoma,15.9 µM
same,GI50,SN12C renal,14.5 µM
same,TGI,SN12C renal,28.6 µM
same,GI50,NCI-H460 lung,20.5 µM
same,TGI,NCI-H460 lung,46.8 µM
same,GI50,SF-295 CNS,15.3 µM
same,TGI,SF-295 CNS,30.7 µM
same,GI50,MDA-MB-435,2.69 µM
same,TGI,MDA-MB-435,7.02 µM
same,GI50,SK-OV-3 ovarian,18.1 µM
same,TGI,SK-OV-3 ovarian,32 µM
same,GI50,HOP-62 NSCLC,15.3 µM
same,TGI,HOP-62 NSCLC,28.7 µM
same,GI50,NCI/ADR-RES ovarian,2.37 µM
same,TGI,NCI/ADR-RES ovarian,7.39 µM
same,GI50,A549 NSCLC,19.9 µM
same,TGI,A549 NSCLC,41.3 µM
same,GI50,NCI-H226 lung,16.8 µM
same,TGI,NCI-H226 lung,32.9 µM
same,GI50,COLO 205 colon,2.33 µM
same,TGI,COLO 205 colon,5.22 µM
same,GI50,LOX IMVI melanoma,2.55 µM
same,TGI,LOX IMVI melanoma,8.89 µM
same,GI50,UACC-62 melanoma,4.79 µM
same,TGI,UACC-62 melanoma,17.2 µM
same,GI50,ACHN renal,1.27 µM
same,TGI,ACHN renal,2.65 µM
same,GI50,MCF7 breast,4.12 µM
same,TGI,MCF7 breast,15.1 µM
same,GI50,RXF 393 renal,2.09 µM
same,TGI,RXF 393 renal,4.54 µM
same,GI50,OVCAR-5 ovarian,16.9 µM
same,TGI,OVCAR-5 ovarian,32.5 µM
same,GI50,OVCAR-4 ovarian,0.959 µM
same,TGI,OVCAR-4 ovarian,2.37 µM
same,GI50,OVCAR-3 ovarian,1.46 µM
same,TGI,OVCAR-3 ovarian,2.81 µM
same,GI50,HCC-2998 colon,17 µM
same,TGI,HCC-2998 colon,31.8 µM
same,GI50,U251 CNS,5.81 µM
same,TGI,U251 CNS,16.5 µM
same,GI50,SF-539 CNS,12.7 µM
same,TGI,SF-539 CNS,28.2 µM
same,GI50,HT29 colon,15.5 µM
same,TGI,HT29 colon,34.7 µM
same,GI50,SK-MEL-5 melanoma,7.11 µM
same,TGI,SK-MEL-5 melanoma,20.3 µM
same,GI50,K-562 leukemia,1.61 µM
same,TGI,K-562 leukemia,4.52 µM
same,GI50,HS 578T breast,13.8 µM
same,TGI,HS 578T breast,> 69.3 µM
same,GI50,MALME-3M melanoma,1.99 µM
same,TGI,MALME-3M melanoma,5.34 µM
same,GI50,HCT-15 colon,13.9 µM
same,TGI,HCT-15 colon,31.4 µM
same,GI50,UO-31 renal,1.28 µM
same,TGI,UO-31 renal,4.06 µM
same,GI50,A498 renal,16.4 µM
same,TGI,A498 renal,41.2 µM
same,GI50,BT-549 breast,14.8 µM
same,TGI,BT-549 breast,28.3 µM
same,GI50,SF-268 CNS,4.98 µM
same,TGI,SF-268 CNS,17.1 µM
same,GI50,IGROV1 ovarian,4.86 µM
same,TGI,IGROV1 ovarian,17.1 µM
same,GI50,SNB-19 CNS,16.8 µM
same,TGI,SNB-19 CNS,40.6 µM
same,GI50,HL-60(TB) leukemia,0.389 µM
same,TGI,HL-60(TB) leukemia,1.8 µM
same,GI50,T-47D breast,0.318 µM
same,TGI,T-47D breast,0.959 µM
same,GI50,HOP-92 NSCLC,1.32 µM
same,TGI,HOP-92 NSCLC,2.66 µM
same,GI50,786-0 renal,9.25 µM
same,TGI,786-0 renal,22.3 µM
same,GI50,CAKI-1 renal,1.96 µM
same,TGI,CAKI-1 renal,5.5 µM
same,GI50,EKVX NSCLC,7.82 µM
same,TGI,EKVX NSCLC,23.2 µM
